Among the test systems are CAKI-1 renal; HCC-2998 colon; LOX IMVI melanoma; NCI-H522 lung; MOLT-4 leukemia; ACHN renal; M14 melanoma; DU-145 prostate; TK-10 renal; KM12 colon.
Common to all, as to assay: inhibition of tumour cell growth, NCI panel, 48 h

Where “and” joins values, the source holds several entries; their conditions need not be identical. Equal values may be shown once.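 A five-concentration, 48-hour dose response in 96-well plates underlies each endpoint, interpolated linearly between surrounding concentrations. At the GI50, growth is halved. TGI: concentration producing complete growth inhibition.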 Some results are limits rather than exact numbers.

In the case of `c1ccc(-c2nnc(Nc3ccc4c(c3)OCCO4)o2)c(NCc2ccncc2)c1`, the GI50 with CAKI-1 renal was 0.16 µM; in the assay with HCC-2998 colon it was 0.0296 µM; in the assay with LOX IMVI melanoma, 0.0459 µM; in the assay with NCI-H522 lung, below 0.01 µM; in the assay on MOLT-4 leukemia, 0.0485 µM; in the assay with ACHN renal it was 0.0784 µM. For the same compound, the GI50 in the assay on M14 melanoma is 0.0223 µM; in the assay with DU-145 prostate, 0.0363 µM; in the assay with TK-10 renal, 1.98 µM; in the assay with KM12 colon, 0.0327 µM. Besides, the TGI in the assay on CAKI-1 renal is above 100 µM; with HCC-2998 colon, 1.35 µM; in the assay with LOX IMVI melanoma, above 100 µM; with NCI-H522 lung it was 0.86 µM; with MOLT-4 leukemia, above 100 µM; with ACHN renal, 14.4 µM. Further, the TGI with M14 melanoma was 0.273 µM; with DU-145 prostate, 0.566 µM; in the assay with TK-10 renal it was above 81.8 µM; in the assay with KM12 colon it was 0.435 µM.

As for `COc1cc2ccnc3c2c(c1OC)-c1ccc(=O)ccc1-3`, the GI50 in the assay with CAKI-1 renal was 16.5 µM; in the assay on HCC-2998 colon it was 32.1 µM; in the assay on LOX IMVI melanoma, 21 µM; in the assay with NCI-H522 lung it was 23.4 µM; in the assay with MOLT-4 leukemia, 3.6 µM; in the assay with ACHN renal, 19.3 µM. In addition, the values for the GI50 in the assay on DU-145 prostate, in the assay on TK-10 renal and in the assay on KM12 colon were 28.8 µM, 35.1 µM and 43.6 µM, respectively. Moreover, the TGI in the assay with CAKI-1 renal was 39.5 µM; with HCC-2998 colon, above 100 µM; with LOX IMVI melanoma, 46.5 µM; in the assay on NCI-H522 lung, 71.3 µM; with MOLT-4 leukemia, 18.7 µM; in the assay with ACHN renal it was 44.6 µM. Further, the TGI is above 100 µM with DU-145 prostate, 83.5 µM with TK-10 renal and above 100 µM with KM12 colon.

As to `O=C(O)C[O][Sb][O]CC(=O)O`, the GI50 in the assay with CAKI-1 renal, with LOX IMVI melanoma, in the assay on NCI-H522 lung, in the assay with MOLT-4 leukemia, in the assay with ACHN renal and with M14 melanoma was above 100 µM each time. Besides, the GI50 in the assay with DU-145 prostate, with TK-10 renal and in the assay on KM12 colon was above 100 µM throughout. The TGI in the assay on CAKI-1 renal, in the assay with LOX IMVI melanoma, in the assay on NCI-H522 lung, in the assay on MOLT-4 leukemia, with ACHN renal and in the assay with M14 melanoma was above 100 µM in each case. Also, the TGI in the assay with DU-145 prostate, in the assay on TK-10 renal and in the assay with KM12 colon was above 100 µM throughout.

Regarding `C/C1=C\C/C=C(\C)[C@H]2CC(CC/C(C)=C/CC1)[C@@](C)(CO)O2`, the GI50 in the assay with CAKI-1 renal was 44.9 µM; in the assay with HCC-2998 colon, above 100 µM; with LOX IMVI melanoma, 23.3 µM; in the assay on NCI-H522 lung it was 23.3 µM; in the assay with MOLT-4 leukemia, 23.5 µM; with ACHN renal it was above 100 µM. The GI50 with M14 melanoma was 71.7 µM; in the assay on DU-145 prostate, above 100 µM; with KM12 colon it was 62.7 µM. Moreover, the TGI in the assay on CAKI-1 renal was above 100 µM; in the assay with HCC-2998 colon, above 100 µM; in the assay on LOX IMVI melanoma it was 54 µM; with NCI-H522 lung, above 100 µM; in the assay with MOLT-4 leukemia it was above 100 µM; in the assay on ACHN renal it was above 100 µM. The TGI in the assay on M14 melanoma, with DU-145 prostate and in the assay with KM12 colon was above 100 µM each time.

As for `CN(C)CCCNc1ccnc2cc([N+](=O)[O-])ccc12`, the TGI in the assay with CAKI-1 renal is 67.6 µM; with LOX IMVI melanoma, 24.6 µM; in the assay on NCI-H522 lung, 16.3 µM; in the assay with MOLT-4 leukemia, above 100 µM; with ACHN renal it was 61.5 µM; in the assay with M14 melanoma it was 24.4 µM. For the same compound, the TGI in the assay on DU-145 prostate amounted to 72.2 µM; in the assay on TK-10 renal, 65.4 µM; with KM12 colon, 26.4 µM.

As for `CCN(CC)CCCOc1cc(O)c2c(=O)cc(-c3ccccc3)oc2c1`, the GI50 was 13.9 µM in the assay on CAKI-1 renal; 10.1 µM in the assay with HCC-2998 colon; 3.75 µM in the assay with LOX IMVI melanoma; 12.1 µM with NCI-H522 lung; 3.29 µM with MOLT-4 leukemia; 6.16 µM in the assay on ACHN renal. The GI50 was 10.2 µM in the assay on DU-145 prostate, 10.3 µM in the assay on TK-10 renal and 11.7 µM in the assay with KM12 colon. Moreover, the TGI in the assay with CAKI-1 renal turned out to be 38.8 µM; with HCC-2998 colon, 24.4 µM; in the assay with LOX IMVI melanoma, 14.1 µM; in the assay on NCI-H522 lung it was 26.7 µM; in the assay on MOLT-4 leukemia, 8.71 µM; with ACHN renal, 19 µM. Besides, the TGI in the assay with DU-145 prostate is 21.8 µM; with TK-10 renal, 25.3 µM; in the assay with KM12 colon it was 33.3 µM.

Regarding `ClC1=NC(Cl)C(Cl)=N/C1=N\c1ncn[nH]1` (centres undefined), the GI50 with CAKI-1 renal is 1.78 µM; in the assay with HCC-2998 colon, 2.17 µM; in the assay on LOX IMVI melanoma, 1.89 µM; in the assay on NCI-H522 lung it was 1.68 µM; in the assay on ACHN renal it was 1.88 µM; with M14 melanoma it was 2.64 µM. The figures for the GI50 in the assay on DU-145 prostate, in the assay on TK-10 renal and with KM12 colon were 1.9 µM, 1.92 µM and 2.27 µM, respectively. In addition, the TGI stood at 3.32 µM in the assay with CAKI-1 renal; 4.28 µM with HCC-2998 colon; 3.72 µM with LOX IMVI melanoma; 3.55 µM in the assay with NCI-H522 lung; 3.48 µM in the assay on ACHN renal; 7.15 µM in the assay with M14 melanoma. Also, the TGI in the assay with DU-145 prostate came out at 3.43 µM; with TK-10 renal, 3.44 µM; with KM12 colon, 4.79 µM.

For `CC1(C)CC(=O)c2c(ccc(C(=O)C[C@H](N)CO)c2N)O1`, the GI50 was 3.27 µM and 0.447 µM with CAKI-1 renal; 2.57 µM and 4.58 µM with NCI-H522 lung; 1.61 µM and 0.177 µM in the assay with MOLT-4 leukemia; 4.49 µM and 0.962 µM with ACHN renal; > 17.5 µM and 5.99 µM with TK-10 renal; 1.23 µM and 0.189 µM in the assay with KM12 colon. The TGI in the assay on CAKI-1 renal is 17.5 µM and 6.03 µM; with HCC-2998 colon it was 17.5 µM and 12 µM; in the assay on NCI-H522 lung, 17.5 µM; in the assay with MOLT-4 leukemia, 17.5 µM and 26.7 µM; in the assay with ACHN renal it was 17.5 µM and > 33.3 µM; in the assay with M14 melanoma, 17.5 µM and 11.3 µM. In addition, the TGI was 17.5 µM and > 33.3 µM with DU-145 prostate; > 17.5 µM and 28.8 µM in the assay on TK-10 renal; 17.5 µM and > 33.3 µM with KM12 colon.
